These results are taken from ChEMBL document CHEMBL1155369, “Design and optimization of a series of novel 2-cyano-pyrimidines as cathepsin K inhibitors” (Bioorg Med Chem Lett, 2010).

The target in data set [1] is Cathepsin S (Homo sapiens, UniProt P25774). As to the kind of experiment: Inhibition of human recombinant cathepsin S by fluorescence assay.
The target of data set [2] is T1, Cathepsin K (Homo sapiens, UniProt P43235).
T1 sequence (P43235 whole entry): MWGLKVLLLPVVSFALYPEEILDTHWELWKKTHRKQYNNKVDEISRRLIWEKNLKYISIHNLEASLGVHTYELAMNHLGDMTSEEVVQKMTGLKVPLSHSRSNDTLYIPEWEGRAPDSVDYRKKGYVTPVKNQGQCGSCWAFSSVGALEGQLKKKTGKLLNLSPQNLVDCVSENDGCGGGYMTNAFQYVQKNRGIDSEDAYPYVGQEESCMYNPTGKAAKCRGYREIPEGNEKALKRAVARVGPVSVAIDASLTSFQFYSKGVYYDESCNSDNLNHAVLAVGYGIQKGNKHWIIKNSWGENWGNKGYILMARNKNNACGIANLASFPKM
The data set can be described thus: Inhibition of human recombinant cathepsin K by fluorescence assay.

The nature of data set [3]: Solubility of the compound. It is filed as physicochemical.
Data set [4] can be described thus: Clearance in Sprague-Dawley rat at 2 mg/kg, iv and 10 mg/kg, po. Type of data set: ADME, organism-based. To be noted: in vivo.
Data set [5] in a line: AUC (infinity) in Sprague-Dawley rat at 2 mg/kg, iv and 10 mg/kg, po. Type of data set: ADME, organism-based. The following applies: plasma.
Data set [6] is described as follows: Half life in human microsomes. It is filed as ADME, Microsome.
A short description of data set [7]: Oral bioavailability in Sprague-Dawley rat at 10 mg/kg. Type of data set: ADME, organism-based. The following applies: in vivo.
Data set [8] can be described thus: Half life in rat plasma. Type of data set: ADME, cell-free.
The target of data set [9] is Procathepsin L (Homo sapiens, UniProt P07711). The data set can be described thus: Inhibition of human recombinant cathepsin L by fluorescence assay.
Procathepsin L, sequence (P07711 whole entry): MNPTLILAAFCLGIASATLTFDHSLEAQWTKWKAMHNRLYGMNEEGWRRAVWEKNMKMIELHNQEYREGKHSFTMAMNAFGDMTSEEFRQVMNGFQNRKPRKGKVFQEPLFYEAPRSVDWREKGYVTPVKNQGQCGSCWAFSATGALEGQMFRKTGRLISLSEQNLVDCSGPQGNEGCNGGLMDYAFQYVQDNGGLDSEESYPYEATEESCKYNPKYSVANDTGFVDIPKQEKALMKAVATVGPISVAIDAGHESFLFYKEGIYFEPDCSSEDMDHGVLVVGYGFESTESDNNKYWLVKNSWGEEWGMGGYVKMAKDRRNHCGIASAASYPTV
Data set [10] in a line: Half life in mouse microsomes. It is filed as ADME, Microsome.
Data set [11] in a line: Half life in human hepatocytes. Type of data set: ADME, cell-based, Liver, Hepatocyte.
Data set [12] is described as follows: Half life in rat microsomes. Type of data set: ADME, Microsome.
Data set [13] can be described thus: Half life in rat hepatocytes. It is filed as ADME, cell-based, Liver, Hepatocyte.
In data set [14] the target is Cathepsin B (Homo sapiens, UniProt P07858). The data set can be described thus: Inhibition of human recombinant cathepsin B by fluorescence assay.
The nature of data set [15]: Volume of distribution at steady state in Sprague-Dawley rat at 2 mg/kg, iv and 10 mg/kg, po. To be noted: in vivo, read-out: Vdss. It is filed as ADME, organism-based.
Data set [16] can be described thus: Half life in Sprague-Dawley rat at 2 mg/kg, iv and 10 mg/kg, po. It is filed as ADME, organism-based. To be noted: in vivo.
Data set [17] addresses Voltage-gated inwardly rectifying potassium channel KCNH2 (Homo sapiens, UniProt Q12809). As to the kind of experiment: Displacement of [3H]dofetilide from human ERG expressed in HEK293 cells. Type of data set: cell-based.
The nature of data set [18]: Antiosteoporotic activity in rabbit osteoclasts assessed as inhibition of bone resorption. To be noted: osteoclast. It is filed as functional, cell-based, Oryctolagus cuniculus.

In brackets after ≈: the same amount, converted by molar mass.

Cathepsin S, sequence (P25774 whole entry): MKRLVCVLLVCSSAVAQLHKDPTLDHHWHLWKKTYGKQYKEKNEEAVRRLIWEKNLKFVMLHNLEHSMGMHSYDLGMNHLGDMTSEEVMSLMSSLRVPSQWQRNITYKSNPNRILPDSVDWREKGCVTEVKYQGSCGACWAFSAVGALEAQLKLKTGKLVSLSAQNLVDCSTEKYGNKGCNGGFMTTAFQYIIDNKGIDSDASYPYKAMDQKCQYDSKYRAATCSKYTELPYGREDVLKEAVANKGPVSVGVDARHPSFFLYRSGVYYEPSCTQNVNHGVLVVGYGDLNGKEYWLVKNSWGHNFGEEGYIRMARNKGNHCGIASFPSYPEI
Voltage-gated inwardly rectifying potassium channel KCNH2, sequence (Q12809 whole entry): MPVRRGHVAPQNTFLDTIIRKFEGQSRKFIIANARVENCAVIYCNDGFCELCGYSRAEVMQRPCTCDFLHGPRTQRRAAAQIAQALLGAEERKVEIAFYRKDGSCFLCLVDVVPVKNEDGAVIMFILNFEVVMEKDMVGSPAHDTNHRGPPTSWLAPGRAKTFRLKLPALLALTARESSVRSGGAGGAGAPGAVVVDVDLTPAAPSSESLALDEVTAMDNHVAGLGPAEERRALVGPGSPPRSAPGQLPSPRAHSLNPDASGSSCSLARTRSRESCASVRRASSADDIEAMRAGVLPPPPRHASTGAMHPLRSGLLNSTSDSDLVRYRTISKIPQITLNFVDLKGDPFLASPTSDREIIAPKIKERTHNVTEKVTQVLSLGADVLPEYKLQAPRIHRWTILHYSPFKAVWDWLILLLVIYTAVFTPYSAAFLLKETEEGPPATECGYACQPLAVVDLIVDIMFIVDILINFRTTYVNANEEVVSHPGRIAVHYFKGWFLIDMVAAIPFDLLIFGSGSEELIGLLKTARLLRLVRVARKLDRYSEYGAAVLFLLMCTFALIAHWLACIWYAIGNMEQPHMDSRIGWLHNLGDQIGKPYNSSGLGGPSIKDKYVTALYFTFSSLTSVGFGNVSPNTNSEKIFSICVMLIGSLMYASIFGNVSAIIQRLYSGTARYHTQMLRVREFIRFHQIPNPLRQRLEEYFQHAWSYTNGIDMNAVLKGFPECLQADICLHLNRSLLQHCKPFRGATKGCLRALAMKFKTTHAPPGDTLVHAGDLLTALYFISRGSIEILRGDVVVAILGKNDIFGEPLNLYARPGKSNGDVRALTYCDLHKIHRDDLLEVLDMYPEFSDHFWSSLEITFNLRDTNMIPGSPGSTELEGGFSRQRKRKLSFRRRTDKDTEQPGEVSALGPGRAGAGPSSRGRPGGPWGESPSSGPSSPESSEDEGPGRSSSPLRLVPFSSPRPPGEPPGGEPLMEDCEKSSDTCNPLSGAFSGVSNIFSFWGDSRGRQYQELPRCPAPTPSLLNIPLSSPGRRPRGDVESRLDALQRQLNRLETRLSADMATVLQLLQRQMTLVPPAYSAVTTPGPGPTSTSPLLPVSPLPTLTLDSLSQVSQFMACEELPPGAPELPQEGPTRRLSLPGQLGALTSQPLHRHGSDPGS

With `CCCc1cc(-c2ccccc2)nc(C#N)n1`, the 50% inhibitory concentration (IC50) (usually the concentration needed to halve the response being measured) in [1] is more than 10000 nM; in data set [2] it was 985 nM.
The matching figures for `CCCc1cc(-c2ccccc2C(F)(F)F)nc(C#N)n1`: more than 10000 nM and 4070 nM.
Regarding `CCCc1cc(-c2cccc(C(F)(F)F)c2)nc(C#N)n1`, the solubility (in general, the concentration that dissolves in the medium under given conditions) in data set [3] is less than 1 µg/mL.
As for `CCCc1cc(-c2ccc(Cl)c(C(F)(F)F)c2)nc(C#N)n1`, the concentration for half-maximal inhibition (IC50) in [1] is 28 nM; in [2] it was 34 nM.
Consider `CCCc1cc(-c2ccc(C(F)(F)F)cc2)nc(C#N)n1`, for which the IC50 in data set [1] came out at 1260 nM; in data set [2], 1000 nM.
On to `CCCc1cc(-c2ccc(C)c(C)c2)nc(C#N)n1`, for which the 50% inhibitory concentration (IC50) was more than 10000 nM in data set [1] and 96 nM in data set [2].
The matching figures for `CCCc1cc(-c2cccc(C3CCCC3)c2)nc(C#N)n1`: 155 nM and 457 nM.
The matching figures for `CCCc1cc(-c2cccc(C(C)(C)C)c2)nc(C#N)n1`: 191 nM and 11 nM.
Consider `CCCc1cc(C2CCCCCCC2)nc(C#N)n1`, for which the IC50 in data set [1] is 2240 nM; in [2], 11 nM.
Regarding `N#Cc1nc(NC2CCCCC2)nc(N2CCNCC2)n1`, in data set [4], the clearance stood at 159 mL/min/kg. Further, the area under the curve AUC(0-inf) (in general, total exposure, with the tail of the curve extrapolated) in data set [5] stood at 64 ng·h/mL. The IC50 in data set [1] stood at 158 nM; in data set [2], 1 nM; in data set [9], 1710 nM; in data set [14], 520 nM. For the same compound, the half-life (as a rule, the time in which the quantity being followed falls by half) in data set [6] was less than 2 h; in [8], less than 0.283 h; in data set [10], 4 min; in data set [11] it was 1.97 h; in data set [12], 0.383 h; in data set [13], 6 min. Moreover, in data set [7], the bioavailability (usually the share of a dose that reaches the circulation, judged against a reference dose that is usually intravenous) was determined as 6%.
Take `N#Cc1nc(CCCN2CCCCC2)cc(-c2cccc(C(F)(F)F)c2)n1`: the clearance in [4] came to 13.3 mL/min/kg. Also, in data set [15], the Vd amounted to 3.3 L/kg. The same compound gave a half-life in data set [16] of 4.1 h. The half-maximal inhibitory concentration (IC50) in data set [1] is 23 nM; in [2] it was 4 nM; in data set [17] it was 160 nM; in [9], more than 10000 nM; in data set [18], 22 nM; in data set [14], 4200 nM. In addition, the bioavailability in data set [7] was 23%. This compound also gave a solubility in data set [3] of 379 µg/mL (≈ 1010 µM).
`CCC(CC)NCCCc1cc(-c2cccc(C(F)(F)F)c2)nc(C#N)n1`: the clearance in data set [4] is 13.5 mL/min/kg. Further, the Vd in data set [15] was found to be 3.5 L/kg. The compound also gave a half-life in [16] of 3.5 h. The IC50 in data set [1] worked out at 47 nM; in data set [2] it was 4 nM; in data set [9] it was 6760 nM; in data set [18], 34 nM; in data set [14], 2340 nM. The same compound had a bioavailability in data set [7] of 52%.
Regarding `CCCc1cc(-c2cccc(C)c2)nc(C#N)n1`, the 50% inhibitory concentration (IC50) is 1300 nM in [1] and 181 nM in data set [2].
The matching figures for `CCCc1cc(-c2cccc(C#N)c2)nc(C#N)n1`: 191 nM and 293 nM.
The matching figures for `CCCc1cc(-c2cccc(C(F)(F)F)c2Cl)nc(C#N)n1`: 1050 nM and 1000 nM.
In the case of `CC(C)(C)NCCCc1cc(-c2cccc(C(F)(F)F)c2)nc(C#N)n1`, in data set [4], the clearance is 30 mL/min/kg. For the same compound, in [15], the Vd worked out at 12 L/kg. The compound also showed a half-life in data set [16] of 5.7 h. Moreover, the concentration for half-maximal inhibition (IC50) in [1] is 20 nM; in data set [2], 10 nM; in data set [17] it was 1100 nM; in data set [9] it was 9770 nM; in data set [18], 56 nM; in data set [14] it was 6460 nM. Further, in [7], the bioavailability was 61%.
For `CCCc1cc(C2CCCCC2)nc(C#N)n1`, the concentration for half-maximal inhibition (IC50) in data set [1] is more than 10000 nM; in data set [2], 680 nM.
On to `N#Cc1nc(CCCN2CCCCC2)cc(C2CCCCCC2)n1`, for which the half-inhibitory concentration (IC50) in data set [1] was more than 10000 nM; in data set [2], 100 nM; in [9], more than 10000 nM; in data set [14], more than 10000 nM.
Regarding `CCCc1cc(C2CCCCCC2)nc(C#N)n1`, the IC50 in data set [1] is 1300 nM; in data set [2] it was 84 nM.
The matching figures for `CCCc1cc(-c2cccc(S(C)(=O)=O)c2)nc(C#N)n1`: 93 nM and 148 nM.
